Values of other authors in patent US12527803B2, “Testosterone dodecanoate compositions and methods” (priority 2023, dated 2026).

Key:
[1] = tested on: Propionibacterium acnes, Staphylococcus aureus, Eschericia coli, Streptococci, Mycobacterium tuberculosis, Clostridium difficile and other bacteria
[2] = tested on: prostatic hyperplasia induced by testosterone; details: rats
[3] = tested on: Vesicular stomatitis virus, Herpes simplex virus, Visna virus, Respiratory syncytial virus, and Junin virus
[4] = tested on: Enterhemorrhagic E. Coli (EHEC) biofilms; details: p<0.001 for lauric acid
[5] = tested on: normotensive and hypertensive rats
[6] = tested on: Candida albicans, Aspergillus niger, and Fusarium spp

CCCCCCCCCCCC(=O)O [lauric acid]
Antibacterial benefit [1]: antibacterial benefit | Effect on prostatic hyperplasia induced by testosterone [2]: prevent the prostatic hyperplasia induced by testosterone | Antiviral benefit [3]: antiviral benefit | Repression of EHEC biofilms versus control [4]: repressed EHEC biofilms significantly differently than the control | Effect on BP and heart rate ([5]; normotensive and hypertensive rats): reduce the BP and heart rate | Effect on HDL levels ([5]; rat, in vivo): increase HDL levels | Antifungal benefit [6]: antifungal benefit

CCCCCCCCCCC(=O)O [undecanoic acid]
Repression of EHEC biofilms versus control [4]: did not
